We go through 10 compounds from US10226451B2, “Substituted bicyclic compounds as bromodomain inhibitors” (ZENITH EPIGENETICS LTD, priority 2013, dated 2019).

Structures are written as SMILES.

In one experiment the test system is hIL-6 mRNA in U937 cells. The experiment can be described thus: Inhibition of hIL-6 mRNA transcription in LPS-stimulated U937 cells. Type of experiment: cell-based. The note with it: Homo sapiens, U-937, PMA-differentiated U937 cells, LPS 1 ug/mL, 3 h, read-out: IL-6 activity. The method, then: In this example, hIL-6 mRNA in tissue culture cells were quantitated to measure the transcriptional inhibition of hIL-6 when treated with a compound of the present disclosure.
Human leukemic monocyte lymphoma U937 cells (CRL-1593.2) were plated at a density of 3.2×10^4 cells per well in a 96-well plate in 100 μL RPMI-1640 containing 10% FBS and penicillin/streptomycin, and differentiated into macrophages for 3 days in 60 ng/mL PMA ([…]) at 37° C. in 5% CO2 prior to the addition of compound. The cells were pretreated for 1 h with increasing concentrations of test compound in 0.1% DMSO prior to stimulation with 1 ug/mL lipopolysaccharide from Escherichia coli. Triplicate wells were used for each concentration. The cells were incubated at 37° C., 5% CO2 for 3 h before the cells were harvested. At time of harvest, media was removed and cells were rinsed in 200 μL PBS. Cells were harvested using the mRNA Catcher PLUS kit according to manufacturer's instructions. The eluted mRNA was then used in a one-step quantitative real-time PCR reaction using components of the RNA UltraSense™ One-Step Kit (Life Technologies) together with Applied Biosystems TaqMan® primer-probes for hIL-6 and Cyclophilin. Real-time PCR plates were run on a ViiA™7 real time PCR machine (Applied Biosystems), data was analyzed, normalizing the Ct values for hIL-6 to an internal control, prior to determining the fold expression of each sample, relative to the control.

The subject of experiment [1] is hIL-17 mRNA in human peripheral blood mononuclear cells. The experiment can be described thus: Inhibition of hIL-17 mRNA transcription in OKT3-stimulated PBMC. It is filed as cell-based. The following applies: OKT3 antibody, 6 h, read-out: IL-17 activity. The method, then:
In this example, hIL-17 mRNA in human peripheral blood mononuclear cells were quantitated to measure the transcriptional inhibition of hIL-17 when treated with a compound of the present disclosure.
Human peripheral blood mononuclear cells were plated (2.0×10^5 cells per well) in a 96-well plate in 45 μL OpTimizer T Cell expansion media (Life Technologies) containing 20 ng/ml IL-2 and penicillin/streptomycin. The cells were treated with increasing concentrations of the test compound or DMSO (0.1%), and incubated at 37° C., 5% CO2 for 1 h before addition of 10× stock OKT3 antibody at 10 ug/ml in media. Triplicate wells were used for each concentration. Cells were incubated at 37° C., 5% CO2 for 6 h before the cells were harvested. At time of harvest, cells were pelleted by centrifugation at 800 rpm for 5 min. Cells were harvested using the mRNA Catcher PLUS kit according to manufacturer's instructions. The eluted mRNA was then used in a one-step quantitative real-time PCR reaction, using components of the RNA UltraSense™ One-Step Kit (Life Technologies) together with Applied Biosystems TaqMan® primer-probes for hIL-17 and Cyclophilin. Real-time PCR plates were run on a ViiA™7 real time PCR machine (Applied Biosystems), data was analyzed, normalizing the Ct values for hIL-17 to an internal control, prior to determining the fold induction of each unknown sample, relative to the control.

Experiment [2] deals with T1, Brd4 bromodomain 1 (BRD4(1)) (Homo sapiens, UniProt O60885).
T1 construct: made in house; host or cells: E. coli BL21(DE3)
Description: Inhibition of tetra-acetylated histone H4 binding to Brd4 bromodomain 1 (HTRF/FRET). The note with it: tetra-acetylated histone H4 peptide, His-tagged bromodomain 200 nM, 2 h. The method, then:
Proteins were cloned and overexpressed with a N-terminal 6×His tag, then purified by nickel affinity followed by size exclusion chromatography. Briefly, E. coli BL21(DE3) cells were transformed with a recombinant expression vector encoding N-terminally Nickel affinity tagged bromodomains from Brd2, Brd3, Brd4. Cell cultures were incubated at 37° C. with shaking to the appropriate density and induced overnight with IPTG. The supernatant of lysed cells was loaded onto Ni-IDA column for purification. Eluted protein was pooled, concentrated and further purified by size exclusion chromatography. Fractions representing monomeric protein were pooled, concentrated, aliquoted, and frozen at −80° C. for use in subsequent experiments.
Binding of tetra-acetylated histone H4 and BET bromodomains was confirmed by a Homogenous Time Resolved Fluorescence Resonance Energy Transfer (HTRF®) method. N-terminally His-tagged bromodomains (200 nM) and biotinylated tetra-acetylated histone H4 peptide (25-50 nM, Millipore) were incubated in the presence of Europium Cryptate-labeled streptavidin (Cisbio Cat. #610SAKLB) and XL665-labeled monoclonal anti-His antibody (Cisbio Cat. #61HISXLB) in a white 96 well microtiter plate (Greiner). For inhibition assays, serially diluted test compound was added to these reactions in a 0.2% final concentration of DMSO. Duplicate wells were used for each concentration tested. Final buffer concentrations were 30 mM HEPES pH 7.4, 30 mM NaCl, 0.3 mM CHAPS, 20 mM phosphate pH 7.0, 320 mM KF, 0.08% BSA. After a 2 h incubation at room temperature, fluorescence was measured at 665 and 620 nm with a SynergyH4 plate reader (Biotek). The binding inhibitory activity was shown by a decrease in 665 nm relative to 620 nm fluorescence. IC50 values were determined from a dose response curve.
(In general: In TR-FRET formats the signal depends on donor and acceptor labels being close together.)

The subject of experiment [3] is c-myc in Human AML MV4-11 cells. Description: Inhibition of c-MYC expression (mRNA, real-time PCR) in MV4-11 cells. The following applies: 3 h, mRNA by real-time PCR. Type of experiment: cell-based. The protocol:
MV4-11 cells (CRL-9591) were plated at a density of 2.5×10^4 cells per well in 96 well U-bottom plates and treated with increasing concentrations of test compound or DMSO (0.1%) in IMDM media containing 10% FBS and penicillin/streptomycin, and incubated for 3 h at 37° C. Triplicate wells were used for each concentration. Cells were pelleted by centrifugation and harvested using the mRNA Catcher PLUS kit according to manufacturer's instructions. The eluted mRNA isolated was then used in a one-step quantitative real-time PCR reaction, using components of the RNA UltraSense™ One-Step Kit (Life Technologies) together with Applied Biosystems TaqMan® primer-probes for cMYC and Cyclophilin. Real-time PCR plates were run on a ViiA™7 real time PCR machine (Applied Biosystems), data was analyzed, normalizing the Ct values for hMYC to an internal control, prior to determining the fold expression of each sample, relative to the control.

In the next experiment the test system is Human AML MV-4-11 cells. The experiment can be described thus: Inhibition of cell proliferation in MV4-11 cells (CellTiter Aqueous One). It is filed as cell-based. The following applies: 72 h. The method, then: In this example, cell titer in MV4-11 cells were quantitated to measure the inhibition of proliferation when treated with a compound of the present disclosure.
MV4-11 cells (CRL-9591) were plated at a density of 5×10^4 cells per well in 96 well flat bottom plates and treated with increasing concentrations of test compound or DMSO (0.1%) in IMDM media containing 10% FBS and penicillin/streptomycin. Triplicate wells were used for each concentration and a well containing only media was used as a control. Plates were incubated at 37° C., 5% CO2 for 72 h before adding 20 μL of the CellTiter Aqueous One Solution (Promega) to each well and incubated at 37° C., 5% CO2 for an additional 3-4 h. The absorbance was read at 490 nm in a spectrophotometer and the percentage of cell titer relative to DMSO-treated cells was calculated after correcting for background by subtracting the blank well's signal. IC50 values were calculated using the Graph Pad Prism software.

Turning to `Cc1noc(C)c1-c1cc(-c2c(C)noc2C)c2c(c1)[nH]c(=O)n2C` [Example Compound 2, 5,7-bis(3,5-dimethylisoxazol-4-yl)-1-methyl-1H-benzo[d]imidazol-2(3H)-one], the IC50 is ≤ 300 nM with hIL-6 mRNA in U937 cells; ≤ 300 nM in experiment [1]; ≤ 300 nM in experiment [2]; ≤ 300 nM in experiment [3]; 300 to 3000 nM in the experiment with Human AML MV-4-11 cells.

As for `Cc1noc(C)c1-c1cc(-c2ccccc2C(F)(F)F)c2c(c1)[nH]c(=O)n2C` [Example Compound 5, 5-(3,5-dimethylisoxazol-4-yl)-1-methyl-7-(2-(trifluoromethyl)phenyl)-1H-benzo[d]imidazol-2(3H)-one], the IC50 with hIL-6 mRNA in U937 cells is ≤ 300 nM; in experiment [1], 300 to 3000 nM; in experiment [2], ≤ 300 nM; in experiment [3], ≤ 300 nM; with Human AML MV-4-11 cells, ≤ 300 nM.

On to `Cc1cnsc1-c1cc(-c2c(C)noc2C)cc2[nH]c(=O)n(C)c12` [Example Compound 10, 5-(3,5-dimethylisoxazol-4-yl)-1-methyl-7-(4-methylisothiazol-5-yl)-1H-benzo[d]imidazol-2(3H)-one], for which the IC50 (with hIL-6 mRNA in U937 cells; in experiment [1]; in experiment [2]; in experiment [3]; in the experiment on Human AML MV-4-11 cells) was ≤ 300 nM throughout.

Consider `Cc1noc(C)c1-c1cc(-c2ccc(F)cc2C(F)(F)F)c2c(c1)[nH]c(=O)n2C` [Example Compound 11, 5-(3,5-dimethylisoxazol-4-yl)-7-(4-fluoro-2-(trifluoromethyl)phenyl)-1-methyl-1H-benzo[d]imidazol-2(3H)-one], for which the IC50 was 300 to 3000 nM with hIL-6 mRNA in U937 cells; ≤ 300 nM in experiment [1]; 300 to 3000 nM in experiment [2]; 300 to 3000 nM in experiment [3]; 300 to 3000 nM in the experiment with Human AML MV-4-11 cells.

Turning to `COc1ccc(F)cc1-c1cc(-c2c(C)noc2C)cc2[nH]c(=O)n(C)c12` [Example Compound 18, 5-(3,5-dimethylisoxazol-4-yl)-7-(5-fluoro-2-methoxyphenyl)-1-methyl-1H-benzo[d]imidazol-2(3H)-one], the IC50 was ≤ 300 nM with hIL-6 mRNA in U937 cells; ≤ 300 nM in experiment [1]; ≤ 300 nM in experiment [2]; 300 to 3000 nM in experiment [3]; 300 to 3000 nM in the experiment on Human AML MV-4-11 cells.

As to `Cc1nc(N)ccc1-c1cc(-c2c(C)noc2C)cc2[nH]c(=O)n(C)c12` [Example Compound 20, 7-(6-amino-2-methylpyridin-3-yl)-5-(3,5-dimethylisoxazol-4-yl)-1-methyl-1H-benzo[d]imidazol-2(3H)-one], the IC50 in the experiment on hIL-6 mRNA in U937 cells was ≤ 300 nM; in experiment [1] it was 300 to 3000 nM; in experiment [2], ≤ 300 nM; in experiment [3], 300 to 3000 nM; in the experiment on Human AML MV-4-11 cells, ≤ 300 nM.

As to `Cc1n[nH]c(C)c1-c1cc(-c2c(C)noc2C)cc2[nH]c(=O)n(C)c12` [Example Compound 21, 7-(3,5-dimethyl-1H-pyrazol-4-yl)-5-(3,5-dimethylisoxazol-4-yl)-1-methyl-1H-benzo[d]imidazol-2(3H)-one], the IC50 (in the experiment with hIL-6 mRNA in U937 cells; in experiment [1]; in experiment [2]; in experiment [3]; with Human AML MV-4-11 cells) was ≤ 300 nM throughout.

As to `Cc1noc(C)c1-c1cc(-c2c(C)nn(C)c2C)c2[nH]c(=O)[nH]c2c1` [Example Compound 22, 6-(3,5-dimethylisoxazol-4-yl)-4-(1,3,5-trimethyl-1H-pyrazol-4-yl)-1H-benzo[d]imidazol-2(3H)-one], the IC50 (in the experiment on hIL-6 mRNA in U937 cells; in experiment [1]; in experiment [2]; in experiment [3]; with Human AML MV-4-11 cells) was ≤ 300 nM in each case.

Consider `Cc1noc(CO)c1-c1cc(-c2c(C)nn(C)c2C)c2c(c1)[nH]c(=O)n2C` [Example Compound 28, 5-(5-(hydroxymethyl)-3-methylisoxazol-4-yl)-1-methyl-7-(1,3,5-trimethyl-1H-pyrazol-4-yl)-1H-benzo[d]imidazol-2(3H)-one], for which the IC50 is 300 to 3000 nM in the experiment with hIL-6 mRNA in U937 cells; 300 to 3000 nM in experiment [1]; ≤ 300 nM in experiment [2]; 300 to 3000 nM in experiment [3]; 300 to 3000 nM in the experiment on Human AML MV-4-11 cells.

Consider `Cc1noc(C)c1-c1cc(-c2cccc(C(N)=O)c2C)c2c(c1)[nH]c(=O)n2C` [Example Compound 30, 3-(6-(3,5-dimethylisoxazol-4-yl)-3-methyl-2-oxo-2,3-dihydro-1H-benzo[d]imidazol-4-yl)-2-methylbenzamide], for which the IC50 (in the experiment on hIL-6 mRNA in U937 cells; in experiment [1]; in experiment [2]; in experiment [3]; in the experiment on Human AML MV-4-11 cells) was ≤ 300 nM throughout.
